# From article PMC9287224 (Clinical Pharmacokinetics, 2022)
# Where a name gives a salt, the structure may show the parent alone.
# Assays:
# CYP2C9 = CYP2C9 (Homo sapiens, UniProt P11712); details: patients with Child C cirrhosis vs control subjects
# [1] = for decrease of the elimination rate by liver cirrhosis: liver cirrhosis (Child class not stated) vs control subjects; for decrease in Cl/F: Child C cirrhosis compared with control subjects; for reduction of the elimination rate: patients with Child C cirrhosis vs control subjects
# [2] = Galactose elimination capacity; format: in vivo, human; details: patients with Child C cirrhosis
# [3] = monkeys; cited from earlier work
# Chain of CYP2C9 (P11712 whole entry): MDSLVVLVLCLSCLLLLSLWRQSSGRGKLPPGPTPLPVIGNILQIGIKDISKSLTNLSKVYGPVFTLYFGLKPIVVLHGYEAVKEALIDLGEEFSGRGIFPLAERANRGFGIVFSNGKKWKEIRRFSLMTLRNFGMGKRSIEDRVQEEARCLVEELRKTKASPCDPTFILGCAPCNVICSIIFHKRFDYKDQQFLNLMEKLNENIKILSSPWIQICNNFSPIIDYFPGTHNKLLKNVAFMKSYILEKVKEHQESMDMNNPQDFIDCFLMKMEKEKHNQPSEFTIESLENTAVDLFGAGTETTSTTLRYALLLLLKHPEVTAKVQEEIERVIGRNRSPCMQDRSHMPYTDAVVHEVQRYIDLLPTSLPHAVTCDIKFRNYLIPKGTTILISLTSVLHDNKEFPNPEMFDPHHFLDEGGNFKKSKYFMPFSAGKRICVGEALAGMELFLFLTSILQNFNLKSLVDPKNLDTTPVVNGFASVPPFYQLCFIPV
smiles,measurement,setting,value
"CC(C(=O)O)c1ccc(-c2ccccc2)c(F)c1 (stereo not shown) [Flurbiprofen, flurbiprofen]",change of metabolic ratio 4-hydroxyflurbiprofen/flurbiprofen,CYP2C9,remained unchanged
"COCCc1ccc(OCC(O)CNC(C)C)cc1 (stereo not shown) [Metoprolol, metoprolol tartrate]",decrease of the elimination rate by liver cirrhosis,[1],37%
same,Cl/F as % of control subjects (dropped to),[1]; patients with Child C cirrhosis,22%
"O=C[C@H](O)[C@@H](O)[C@@H](O)[C@H](O)CO [Galactose, galactose]",galactose elimination capacity as % of controls (dropping to),[2],18%
"Cc1ncc2n1-c1ccc(Cl)cc1C(c1ccccc1F)=NC2 [Midazolam, midazolam]",decrease in Cl/F,[1],84%
same,ratio of the bioavailabilities Fcirrhosis Child C/Fcontrols,[1]; assuming equal volume of distribution in cirrhosis and controls,1.73
same,clearance,"[1]; human, in vivo, clearance corrected for bioavailability, controls",~1330 mL/min
"COc1ccc2[nH]c([S+]([O-])Cc3ncc(C)c(OC)c3C)nc2c1 (stereo not shown) [Omeprazole, omeprazole]",decrease in Cl/F,[1],91%
same,decrease of the elimination rate by liver cirrhosis,[1],75%
"O=C1Nc2ccc(Cl)cc2[C@@](C#CC2CC2)(C(F)(F)F)O1 [Efavirenz, efavirenz]",bioavailability,[3],42%
same,reduction of the elimination rate,[1],30%
"CC(C(=O)O)c1ccc(-c2ccc(O)cc2)c(F)c1 (stereo not shown) [4-Hydroxyflurbiprofen, 4-hydroxyflurbiprofen]",increase in the AUC0–24h by liver cirrhosis,[1]; liver cirrhosis vs control subjects (Child class not stated),58%
"Cn1c(=O)c2c(ncn2C)n(C)c1=O [Caffeine, caffeine]",reduction of the elimination rate,[1],51%
